Reference: patent US20250026733A1, “DEUTERATED ANALOGS OF PYROLE INHIBITORS OF ERK, SYNTHESIS THEREOF AND INTERMEDIATES THERETO” (BIOMED VALLEY DISCOVERIES, INC., priority 2022, published 2025)
Like-named read-outs stand apart in the source and are kept apart here. Marks after values point to notes of the source that are not given here.

Assays:
[1] = tested on: phospho-ERK1/2 to total ERK1/2 in A375 cells; experiment: A375 pERK/ERK dose response study (MSD); format: cell-based; settings: Homo sapiens, A-375, ratio of phospho-ERK1/2 to total ERK1/2
Procedure: A375 pERK/ERK Dose Response Study:
Briefly, A375 cells were plated at 30,000 cells/well in 2×96 well plates, allowed to recover overnight, washed and fed fresh media the next day then treated with a dose response of the selected compounds. Following the determined pretreatment time with the compounds at 37° C./5% CO2, the media was aspirated, and cells lysed with cold, complete MESO Scale Discovery (MSD) lysis buffer. pERK and total ERK1/2 levels were measured using MESO Scale Discover Phospho(Thr202/Tyr204; Thr185/Tyr187)/Total ERK1/2 kits. The protocol and all reagents were provided in the kit. All wells were blocked with 150 μl Blocking Solution for one hour. […] of lysis buffer was added per well and incubated overnight at 4° C. Following the overnight incubation, the wells were washed three times with Tris Wash buffer, then […] of 1× Detection Antibody was added per well and incubated at room temperature for one hour with vigorous shaking. All wells were then washed three times with Tris Wash Buffer before 150 μl of 1× Read Buffer was added per well and the plates read using the MSD Sector Imager. Data were calculated as a ratio of phospho-ERK1/2 to total ERK1/2 to allow for normalization of the samples.

pRSK/RSK in A375 cells = experiment: A375 pRSK/RSK dose response study (ELISA); format: cell-based; settings: Homo sapiens, A-375, pRSK and total RSK ELISA
Procedure: A375 pRSK/RSK Dose Response Study
Briefly, A375 cells were plated at 30,000 cells/well in 2×96 well plates, allowed to recover overnight, washed and fed fresh media the next day then treated with a dose response of the selected compounds. Following the determined pretreatment with the compounds at 37° C./5% CO2 the media was aspirated, and cells lysed with cold, complete MSD lysis buffer. pRSK and total RSK were analyzed using CST/PathScan pRSK and total RSK ELISAS according to the respective kit protocols. All samples were analyzed at 90% of remaining sample in pRSK and 10% of remaining sample in total RSK ELISA, which was performed following kit protocols.

[2] = Pharmacokinetics and metabolite formation in rats; format: in vivo, rat; settings: for AUC(0-t) / half-life: both sexes
Procedure: Ulixertinib, Formulas 18A, 19A, and 21A were dosed twice daily (12 hours apart, ±30 minutes) for five consecutive days (10 doses/animal) to rats via oral gavage (PO). Each compound was administered at a dose of 12.5 mg/kg to 6 rats (3 male/3 female, N=6 rats/compound). Each compound was formulated in 1% (w/v) carboxymethylcellulose (CMC) in water at a concentration of 1.25 mg/mL. Following the second (p.m.) dose on Day 5, blood samples were collected from each rat at approximately 0.5, 1, 2, 4, 6, 8, and 12 hours post-dose. Blood samples were centrifuged to obtain plasma. Plasma samples were analyzed for concentrations of the dosed compounds and selected metabolites using an established LC-MS/MS method. The lower limit of quantitation of each compound was 1.00 ng/mL. The rat half-life values (determined by non-compartmental analysis using WinNonlin software) for each compound are shown in Table 7, and the areas under curve from time 0 to hour 12 (AUC0-12), calculated using the linear trapezoidal rule, for each dosed compound and selected metabolites are presented in Table 8.

[3] = Steady-state exposure of ulixertinib and metabolites in rat; format: in vivo
Source text: (§1) The steady state exposure levels of non-isotopically enriched parent ulixertinib and related metabolites in rat (day 5) and human subjects (day 15) is provided in TABLE 1 below: […]

[4] = Steady-state exposure of ulixertinib and metabolites in human subjects; format: in vivo
Source text: as §1

Compound	IC50 [1] [nM]	IC50 (pRSK/RSK in A375 cells) [nM]	AUC(0-t) ([2]; rat, in vivo, po, 12.5 mg/kg) [µg·h/mL]	half-life ([2]; rat, in vivo, po, 12.5 mg/kg) [h]	AUC0-12 M2, percent change relative to Ulixertinib ([2]; both, rat, in vivo)	AUC0-12 M3, percent change relative to Ulixertinib ([2]; both, rat, in vivo)	AUC0-12 M6, percent change relative to Ulixertinib ([2]; both, rat, in vivo)	AUC0-12 Parent, percent change relative to Ulixertinib ([2]; both, rat, in vivo)	Half-life, percent change relative to Ulixertinib ([2]; both, rat, in vivo)	longer mean half-life than ulixertinib ([2]; both, rat, in vivo) [%]	% of total Ulixertinib related exposure ([3]; day 5, steady state) [%]	AUC at 5 day ([3]; in vivo, day 5, non-isotopically enriched ulixertinib and related metabolites, read-out: Steady-State AUC (Mean ± SD)) [µg·h/mL]	% of total Ulixertinib related exposure ([4]; day 15, steady state) [%]	AUC at 15 day ([4]; in vivo, day 15, non-isotopically enriched ulixertinib and related metabolites, read-out: Steady-State AUC (Mean ± SD)) [µg·h/mL]	AUC(0-t) ([2]; rat plasma, 12.5 mg/kg PO twice daily for five days, after second dose on Day 5, N=6, read-out: AUC0-12, Parent, Mean) [µg·h/mL]	half-life ([2]; rat plasma, 12.5 mg/kg PO twice daily for five days, after second dose on Day 5, N=6, read-out: Half-life, t1/2, Mean (converted)) [h]
[2H]C([2H])([2H])C([2H])(Nc1cc(-c2c[nH]c(C(=O)N[C@H](CO)c3cccc(Cl)c3)c2)c(Cl)cn1)C([2H])([2H])[2H] [Formula 18, 4-(5-chloro-2-((propan-2-yl-d7)amino)pyridin-4-yl)-N-(1-(3-chlorophenyl)-2-hydroxyethyl)-1H-pyrrole-2-carboxamide]	70	40	–	–	–	–	–	–	–	–	–	–	–	–	–	–
Cl.[2H]C(C)(C)Nc1cc(-c2c[nH]c(C(=O)N[C@H](CO)c3cccc(Cl)c3)c2)c(Cl)cn1 [Formula 21A]	–	–	193	3.81	(−17%^a)	(+8%^a)	(+7%^a)	(+12%^a)	(+4%^a)	4	–	–	–	–	–	–
CC(C)Nc1cc(-c2c[nH]c(C(=O)N[C@H](CO)c3cccc(Cl)c3)c2)c(Cl)cn1 [Ulixertinib, reference compound]	58	37	–	–	–	–	–	–	–	–	91.1	179 ± 49	37.5	29.6 ± 16.1	173	3.67
